Test results: ChEMBL document CHEMBL1158165, “Correlation between reduction potentials and inhibitions of Epstein-Barr virus activation by anthraquinone derivatives” (Bioorg Med Chem Lett, 2008)

How the values were obtained:
Type in all cases: cell-based
Raji [1] = experiment: Inhibition of 12-O-tetradecanoylphorbol-13-acetate induced EBV-early antigen activation in human Raji cells; conditions: human gammaherpesvirus 4
Raji [2] = experiment: Inhibition of 12-O-tetradecanoylphorbol-13-acetate induced EBV-early antigen activation in human Raji cells at 100 molar ratio relative to control; design: scale not given: the % may be the effect or the level left; conditions: human gammaherpesvirus 4
Raji [3] = experiment: Inhibition of 12-O-tetradecanoylphorbol-13-acetate induced EBV-early antigen activation in human Raji cells at 10 molar ratio relative to control; design: scale not given: the % may be the effect or the level left; conditions: human gammaherpesvirus 4
[4] = Cytotoxicity against human Raji cells assessed as cell viability at 1000 molar ratio; conditions: read-out: Activity
Raji [5] = experiment: Inhibition of 12-O-tetradecanoylphorbol-13-acetate induced EBV-early antigen activation in human Raji cells at 500 molar ratio relative to control; design: scale not given: the % may be the effect or the level left; conditions: human gammaherpesvirus 4
Raji [6] = experiment: Inhibition of 12-O-tetradecanoylphorbol-13-acetate induced EBV-early antigen activation in human Raji cells at 1000 molar ratio relative to control; design: scale not given: the % may be the effect or the level left; conditions: human gammaherpesvirus 4

| SMILES | logIC50 (Raji [1]) | Activity (Raji [2]) | Activity (Raji [3]) | viability at 1000 molar ratio [4] | Activity (Raji [5]) | Activity (Raji [6]) |
| --- | --- | --- | --- | --- | --- | --- |
| Cc1cc2c(c(O)c1-c1c(C)cc3c(c1O)C(=O)c1c(O)cc(O)cc1C3=O)C(=O)c1c(O)cccc1C2=O | 2.8 | – | – | – | – | – |
| CC(=O)Oc1cc(C)cc2c1C(=O)c1c(OC(C)=O)cc(O)cc1C2=O | 2.7 | – | – | – | – | – |
| COc1cc2c(c(O)c1C)C(=O)c1c(O)cc(C)cc1C2=O | 2.48 | 50% | 93% | 60% | 23.2% | 1.2% |
| O=C1c2ccccc2C(=O)c2c(O)cccc21 | 2.77 | – | – | – | – | – |
| O=C1c2cccc(O)c2C(=O)c2c1cc(CO)c(-c1c(CO)cc3c(c1O)C(=O)c1c(O)cccc1C3=O)c2O | 2.78 | – | – | – | – | – |
| CC(=O)Oc1cc(O)cc2c1C(=O)c1c(O)cc(C)cc1C2=O | 2.69 | – | – | – | – | – |
| COc1cc(O)c2c(c1)C(=O)c1cc(C)cc(O)c1C2=O [PHYSCION] | 2.5 | 51.1% | 94.2% | 60% | 24.7% | 1.5% |
| COc1cc(C)cc2c1C(=O)c1c(O)cccc1C2=O | 2.82 | – | – | – | – | – |
| COc1cc2c(c(O)c1OC)C(=O)c1c(cc(C)c(O)c1OC)C2=O | 2.73 | – | – | – | – | – |
| Cc1cc(O)c2c(c1)C(=O)c1cc(O)cc(O)c1C2=O [EMODIN] | 2.48 | 51.6% | 91% | 70% | 24.8% | 1.5% |
| Cc1cc2c(c(O)c1-c1c(C)cc3c(c1O)C(=O)c1c(O)cccc1C3=O)C(=O)c1c(O)cccc1C2=O | 2.86 | – | – | – | – | – |
| CC(=O)Oc1cc(OC(C)=O)c2c(c1)C(=O)c1cc(C)cc(OC(C)=O)c1C2=O | 2.67 | – | – | – | – | – |
| O=C1c2ccc(O)cc2C(=O)c2ccc(O)cc21 | 2.88 | – | – | – | – | – |
| Cc1cc(O)c2c(c1)C(=O)c1cc(O)c(-c3c(C)cc4c(c3O)C(=O)c3c(O)cccc3C4=O)c(O)c1C2=O | 2.83 | – | – | – | – | – |
| COc1cc(OC)c2c(c1)C(=O)c1cc(C)cc(O)c1C2=O | 2.5 | 51.7% | 94.7% | 60% | 24.2% | 2.9% |
| Cc1cc(O)c2c(c1)C(=O)c1cc(CO)c(-c3c(O)cc4c(c3O)C(=O)c3c(O)cccc3C4=O)c(O)c1C2=O | 2.8 | – | – | – | – | – |
| O=C1c2cccc(O)c2C(=O)c2c(O)cc(CO)cc21 | 2.66 | – | – | – | – | – |

| SMILES | logIC50 (Raji [1]) | Activity (Raji [2]) | Activity (Raji [3]) | viability at 1000 molar ratio [4] | Activity (Raji [5]) | Activity (Raji [6]) |
| --- | --- | --- | --- | --- | --- | --- |
| COc1cc2c(c(OC)c1O)C(=O)c1c(ccc(C)c1O)C2=O | 2.55 | – | – | – | – | – |
| COc1cc(C)cc2c1C(=O)c1c(OC)cc(O)cc1C2=O | 2.45 | 47.3% | 92.6% | 60% | 22% | 0% |
| O=C1c2ccccc2C(=O)c2ccccc21 | 3.04 | – | – | – | – | – |
| Cc1cc2c(c(O)c1-c1c(C)cc3c(c1O)C(=O)c1c(O)cc(O)cc1C3=O)C(=O)c1c(O)cc(O)cc1C2=O | 2.7 | – | – | – | – | – |
| COc1c(O)cc2c(c1O)C(=O)c1c(cc(C)c(O)c1OC)C2=O | 2.72 | – | – | – | – | – |
| Cc1ccc2c(c1O)C(=O)c1ccccc1C2=O | 2.72 | – | – | – | – | – |
| COc1cc(O)c2c(c1)C(=O)c1cc(C)cc(OC)c1C2=O | 2.43 | 45.3% | 91.8% | 60% | 21.3% | 0% |
| COc1cc(C)cc2c1C(=O)c1c(O)cc(O)cc1C2=O [1-O-METHYLEMODIN] | 2.49 | 49.8% | 94.1% | 60% | 24.1% | 1.1% |
| COc1cc(OC)c2c(c1)C(=O)c1cc(C)cc(OC)c1C2=O | 2.41 | 44% | 90.1% | 60% | 21.1% | 0% |
| COc1cc2c(c(OC)c1OC)C(=O)c1c(cc(C)c(O)c1OC)C2=O | 2.73 | – | – | – | – | – |
| CCc1ccc2c(c1)C(=O)c1ccccc1C2=O | 2.7 | – | – | – | – | – |
| CC(=O)Oc1cc(OC(C)=O)c2c(c1)C(=O)c1cc(C(=O)O)cc(OC(C)=O)c1C2=O | 2.66 | – | – | – | – | – |
| Cc1cc(O)c2c(c1)C(=O)c1cccc(O)c1C2=O | 2.68 | – | – | – | – | – |
| O=C1c2cccc(O)c2C(=O)c2c(O)cccc21 | 2.78 | – | – | – | – | – |
| COc1c(O)c(C)cc2c1C(=O)c1c(O)cccc1C2=O [OBTUSIFOLIN] | 2.55 | 54.9% | 98.7% | 60% | 27.8% | 4.3% |
| COc1cc(O)cc2c1C(=O)c1c(O)cc(C)cc1C2=O [QUESTIN] | 2.52 | 52.8% | 95.6% | 60% | 25.6% | 3.7% |
| Cc1ccc2c(c1)C(=O)c1ccccc1C2=O | 2.66 | – | – | – | – | – |
